Source: article PMC2678990, “Stilbene glycosides are natural product inhibitors of FGF-2-induced angiogenesis” (BMC Cell Biology, 2009)

Assays:
BAEC [1] = assay: FGF-2-induced migration in wound healing model; format: cell-based, bovine; details: Bos taurus, FGF-2 25 ng/ml, 18 h
Protocol: Cells (6 × 10^4/ml) were added to a Thermanox cover slip in a 24-well plate in complete medium and incubated for 24–48 h. When confluent, the medium was replaced with DMEM containing 0.1% FCS and incubated for a further 48 h. Cover slips were washed (PBS, × 3), wounded with a sterile razor to produce a straight edged cut and washed in PBS to remove dislodged cells. Cover slips were added to a fresh 24-well plate in 0.1% FCS and incubated with FGF-2 (or other growth factors) and a range of concentrations of test compounds for 18 h. Under these conditions, there was negligible proliferation but measurable migration. Slides were fixed in ethanol (100%), stained with methylene blue and photographed. For each slide, 10 fields of view (2 mm × 1.45 mm) were counted at random. Each experiment was performed in triplicate and at least twice.

VEGF receptor = assay: ELISA binding assay of VEGF to soluble receptor; details: results not shown
Protocol: (§1) Competition between growth factors, their cell surface receptors and test compounds was assessed in an ELISA assay as described by. A 96-well plate was coated overnight with 2 μg/ml of the soluble receptors (FGFR-1 or -2 and VEGFR-1 or -2) and blocked with 1% BSA in PBS containing 0.05% Tween-20. The test compound and FGF-2 or VEGF were pre-mixed for 2 h and added to the plate and incubated for 2 h. The plate was washed (× 3 with PBS-Tween-20) and incubated with anti-FGF-2 IgG (1:500 in PBS-Tween-20) or anti-VEGF IgG (!:250 in PBS-Tween-20) for 45 min, washed and incubated with horseradish peroxidase conjugated goat anti-IgG (Santa Cruz, 1:1000) for a further 45 min. After washing (× 3), ABTS peroxidase substrate was added and the absorbance read at 405 nm. IC50 values were calculated from the data using the EZ-Fit enzyme kinetic software (Perella Scientific Inc., Amherst, USA).

HDMEC [2] = assay: FGF-2-induced proliferation; format: cell-based; details: Homo sapiens, FGF-2 25 ng/ml, 72 h
Protocol: (§2) Cells were seeded in triplicate at a concentration of 6.0 × 10^5/ml, in 2 ml of complete medium in 6-well plates. […] Growth factors, FGF-2 (25 ng/ml), EGF (75 ng/ml) and VEGF (10 ng/ml) and test compounds at different concentration were added and cells incubated for a further 72 h. Control wells were treated with 5 μl DMSO. Concentration ranges of test compounds and pre-incubation times were based on pilot studies. After 72 h, cells were washed in PBS, detached in 0.05%w/v trypsin in PBS, and counted on a Coulter counter (Coulter Electronics, Hialeah, FL) set to a threshold of 30 μm. Experiments were performed in triplicate and repeated at least twice.

[3] = tested on: chick chorioallantoic membrane; assay: Chick chorioallantoic membrane (CAM) assay; format: in vivo
Protocol: The angiogenic activity of test compounds was determined using the semi-quantitative chick chorioallantoic assay (CAM) as described previously. To expose the CAM a window was created in the shells of 4 day-old chicken eggs. […] […] This approach enabled calculation of an accumulated response in each group. To photograph the membrane, 2 cm^3 of a 50% emulsion of aqueous paraffin oil containing 2% Tween-80 was injected at the site of application and photographed using a Leitz dissecting microscope. Each experiment was performed five times and statistical significance was determined by the Mann-Whitney U test and the data is expressed as a median value (m).

HDMEC [4] = assay: FGF-2-induced chemotaxis, Boyden chamber assay; format: cell-based; details: Homo sapiens, 6 h, FGF-2 25 ng/ml
Protocol: The effect of compounds 1 and 2 on cell migration was examined in vitro using a modified Boyden chamber system with 8.0 μm pore polycarbonate filter inserts (TSL, UK). The filter was coated overnight with 0.1%w/v gelatine, and air-dried. Cells (1 × 10^5) were placed in the upper part of the filter and test compounds at different concentrations with and without growth factors were added to the lower part in SPM. Cells were incubated at 37°C for 6 h and the filter removed and the upper side containing non migrated cells wiped and rinsed. The filters were fixed (4% paraformaldehyde), and stained (Geimsa) and cell migration in duplicate wells was determined by counting cell numbers on the lower surface. Experiments were performed in triplicate and at least two times.

FGFR-1 (Homo sapiens) = tested on: T1, FGFR-1 (Homo sapiens); assay: ELISA binding assay of FGF-2 to soluble receptor; details: added together with FGF-2, no pre-incubation
T1 construct: coated overnight with 2 μg/ml of the soluble receptors (FGFR-1 or -2 and VEGFR-1 or -2); purchased Santa Cruz Biotechnology (receptor); R&D Systems (FGF-2)
Protocol: (§3) Figure 8 The effect of increasing concentrations of compound 1 on FGF-2 binding to FGFR-1 and -2. The soluble receptor was coated onto the wells of a 96-well plate and blocked with 1% BSA. […] After 2 h the plate was washed and incubated with antibodies to the growth factor, then peroxidase-conjugated IgG for 45 min. Peroxidase substrate was added and the absorbance read at 405 nm (se below for detail).
as §1, with “The test compound and FGF-2 or VEGF were pre-mixed for 2 h and added to the plate and incubated for 2 h.” left out

FGFR-2 (Homo sapiens) = tested on: T2, FGFR-2 (Homo sapiens); assay: ELISA binding assay of FGF-2 to soluble receptor; details: added together with FGF-2, no pre-incubation
T2 construct: coated overnight with 2 μg/ml of the soluble receptors (FGFR-1 or -2 and VEGFR-1 or -2); purchased Santa Cruz Biotechnology (receptor); R&D Systems (FGF-2)
Protocol: as §3
as §1, with “The test compound and FGF-2 or VEGF were pre-mixed for 2 h and added to the plate and incubated for 2 h.” left out

BAEC [5] = assay: EGF-induced proliferation; format: cell-based, bovine; details: EGF 75 ng/ml, 72 h, NS = inhibition less than 50%
Protocol: as §2

BAEC [6] = assay: Regression of established tubular networks; format: cell-based, bovine; details: Bos taurus, established FGF-2 tubular network, 24 h
Protocol: Tube regression under the influence of the test compounds was also investigated. Cell suspensions were mixed with Matrigel supplemented with FGF-2 (25 ng/ml) in 15% FCS as described above.

HDMEC [7] = assay: EGF-induced proliferation; format: cell-based, human; details: EGF 75 ng/ml, 72 h, NS = inhibition less than 50%
Protocol: as §2

T2 sequence (P09038 143-288): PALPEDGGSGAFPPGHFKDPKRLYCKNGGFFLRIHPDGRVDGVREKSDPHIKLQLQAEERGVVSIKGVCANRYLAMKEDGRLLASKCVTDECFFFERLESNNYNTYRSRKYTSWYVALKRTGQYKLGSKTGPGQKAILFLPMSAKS
T1 sequence (P09038 143-288): as above

IC50 (BAEC [1]): 41.8 ± 0.95 µM | Effect on binding to the VEGF receptor (VEGF receptor): did not bind | Inflammatory or angiogenic response of compound alone ([3]; 10 μg compound alone, without FGF-2): no inflammatory or angiogenic response | IC50 (HDMEC [4]): 21.5 ± 0.6 µM | Effect on FGF-2 binding to FGFR-1 when added with FGF-2 (FGFR-1 (Homo sapiens)): no significant inhibitory effect | Effect on FGF-2 binding to FGFR-2 when added with FGF-2 (FGFR-2 (Homo sapiens)): no significant inhibitory effect | IC50 (BAEC [6]): 40 ± 0.2 µM
Compound: COc1cc(C=Cc2ccc(O)cc2)cc(OC2OC(COC3OC(C)C(O)C(O)C3O)C(O)C(O)C2OC2OC(C)C(O)C(O)C2O)c1 (centres unmarked) [Compound 1]
IC50 (HDMEC [2]): 42 ± 0.93 µM | In vivo CAM assay, inhibition of FGF-2-induced angiogenesis ([3]; 10 μg compound with FGF-2, 6 days exposure, listed as I): complete inhibition | Degree of angiogenesis (m), median score ([3]; 10 μg compound with FGF-2, scale 0 to 3 or greater): 0 | IC50 (BAEC [5]; Bos taurus): > 71.5 µM | EGF-induced proliferation, IC50 (BAEC [5]): no significant inhibitory effect | EGF-induced proliferation, IC50 (HDMEC [7]): no significant inhibitory effect | IC50 (HDMEC [7]; Homo sapiens): > 71.5 µM
